Assay results from paper PMC9168271, “Discovery of Novel Tetrahydro-β-carboline Containing Aminopeptidase N Inhibitors as Cancer Chemosensitizers” (Frontiers in Oncology, 2022).

Tests used:
[1] = tested on: CD13 (APN) expression in MDA-MB-231 cells; test: Flow cytometry of APN expression; assay type: cell-based, human; conditions: 48 h
Procedure: (§1) The cells were seeded in 6-well plates (4 × 10^5 cells/well) and treated with tested compounds for 48 h. Then, cells were collected into 1.5 mL EP tubes, washed twice with PBS, and centrifuged at 2500rpm for 5minutes. Cells were resuspended with 100μlof PBS, then 2μL/tube of APN antibody was added, followed by incubation in dark for 30 minutes at 4°C. Then the cells were subjected to flow cytometry (FACSAria II, Becton-Dickinson) for the expression of APN.

[2] = tested on: CD13 (APN) expression in MDA-MB-468 cells; test: Flow cytometry of APN expression; assay type: cell-based, human; conditions: 48 h
Procedure: as §1

MDA-MB-231 cells [3] = test: Spheroid-formation assay; assay type: cell-based, human; conditions: 1 nM PTX + 1 µM APN inhibitor, 7 days
Procedure: (§2) Cancer stem cells (CSCs) play an important role in the resistance of cancer cells to chemotherapeutic drugs. APN has been reported to be a therapeutic target in human cancer stem cells ([18]). Therefore, the CSC based test was performed in the present study. Colony-formation assay and spheroid-formation assay are two commonly used methods to assess the capacity of CSCs in vitro. In the spheroid-formation assay, MDA-MB-231 and MDA-MB-468 cells were dispersed into single cells, inoculated into low-adherence 6-well plates, and added with stem cell sphere medium. The stem cell spheres became visible after 5-6 days incubation. […] It is known that mRNA levels of the stem cell biomarkers OCT-4, SOX-2 and Nanog are associated with the characteristics of TNBC stem cells ([30]). Therefore, RT-PCR was performed on the TNBC cells to detect the mRNA levels of these markers.
(§3) MDA-MB-231 cells and MDA-MB-468 cells in logarithmic growth phase were collected, stem cell sphere culture medium without serum (containing 50X B-27Supplement,100X N-2 Supplement,20 μg/L epidermal growth factor (EGF), 20µg/L insulin-like growth factor (IGF-1), 10 μg/L fibroblast growth factor (b-FGF), 20X Knock Out SR, 2mM L-Glutamine, 5mg/L Heparin sodium, 1X PENICILLIN-STREPTOMYCIN and DMEM: F12 (1:1) medium was added for the re-suspension and fully blown into single-cell suspension. The cells were diluted to 5,000/2 mL, with stem cell sphere culture medium, and cultured in a 37°C, 5% CO2 cell incubator. The number of stem cell spheres were observed every day. […]

MDA-MB-468 cells [4] = test: Spheroid-formation assay; assay type: cell-based, human; conditions: 1 nM PTX + 1 µM APN inhibitor, 7 days
Procedure: as §2, §3

[5] = tested on: luciferase-expressing MDA-MB-231 cells; test: In vivo anticancer study, xenograft model in female nude mice; conditions: 20 mg/kg/d APN inhibitor + 10 mg/kg/3 days PTX; 3 weeks; n = 4
Procedure: To evaluate the in vivo anticancer potency of the combination of PTX-APN inhibitor, cancer xenograft model was established by inoculation of luciferase- expressing MDA-MB-231 cells to female nude mice. About 1×10^7 MDA-MB-231 cells were injected subcutaneously into the right fat pad of the fourth mammary gland of the mice. […] Significant tumor size variations were observed among different groups ( Figures 5A, B ). […] Moreover, no clear signs of toxicity in liver and spleen were detected in the sacrificed mice.
Female Nude mice aged 3 weeks were purchased from Hunan SJA Experimental Animal Company and raised under SPF aseptic conditions. About 1×10^7 luciferase overexpressing MDA-MB-231 cells were injected subcutaneously into the right fat pad of the fourth mammary gland of each mouse. […] PBS group animals received PBS via intraperitoneal injection, while 10 mg/kg/3 days of PTX was administered to animals in the PTX group. […] After 3 weeks of administration, each mouse was intraperitoneally injected with 200uL of fluorescein substrate (d-fluorescein potassium salt, 150mg/kg), and then anesthetized with isoflurane. In vivo fluorescence imaging system (IVIS Spectrum, PerkinElmer) and SlideBook4.0 software were utilized for the result analysis. After the imaging analysis, mice were sacrificed and dissected for the detection of tumor size and calculation of liver/spleen indexes. All animal experiments were approved by the Animal Care and Use Committee of Weifang Medical University.

[6] = target: Aminopeptidase N (APN, CD13) (Homo sapiens, UniProt P15144); test: APN enzyme inhibitory assay, supernatant of K562-CD13 cells as enzyme source, L-leucine-p-nitro anilide substrate; conditions: for inhibition at 30 µM: read-out: Inhibitory rate (%);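 as to all read-outs here: substrate L-leucine-p-nitro anilide used at 1.6 mM, with enzyme from sonicated APN-overexpressing K562 cell lysate supernatant, run in 96-well plates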
Procedure: In the enzyme inhibitory assay, K562-CD13 monoclonal cells were used as APN enzyme source as described in our previous work ([27]).
K562 cells with overexpression of APN were added into PBS for ultrasonic crushing, centrifuged for 10 minutes, and supernatant was taken as enzyme source and added into 96-well plate. Different concentrations of compounds were added subsequently, and 1.6 mM L-leucine-p-nitro anilide was used as substrate. After 30 minutes of reaction, the APN enzyme activity was measured at 405 nm absorbance. The inhibition rate of APN activity was analyzed by the formula (Od control OD tested)/Od control 100%.

MDA-MB-231 cells [7] = test: MTT antiproliferative assay, chemotherapeutic drug with APN inhibitor; assay type: cell-based, human; conditions: for antiproliferative activity of chemotherapeutic drugs in combination with APN inhibitor: with PTX, EPB, CTX, CBP, 48 h
Excerpt: (§4) The combination of APN inhibitor and paclitaxel (PTX), has been employed for the treatment of human breast cancer. In the current study, molecules with good APN inhibitory potency (D12, D14 and D16) were selected and used in combination with several chemotherapeutic drugs, such as PTX, EPB, cyclophosphamide (CTX) and carboplatin (CBP) to investigate its inhibitory effect on breast cancer. Human triple negative breast cancer cell (TNBC) lines MDA-MB-231 and MDA-MB-468 were utilized in the in vitro studies. […] It was also observed that the synthesized molecules enhanced chemotherapeutic drug sensitivity in a dose dependent manner. Therefore, further analysis was performed to examine the synergistic effects of the derived APN inhibitors and chemotherapeutic drugs.
(§5) Then, 10μL of MTT solution (5 mg/mL) were added to each well. After incubation for 4h, the medium was carefully removed, and 100 μL DMSO was added to each well and fully dissolved in vibration for 10min. The optical density (OD) at 490 nm and 630 nm were measured with a microplate Spectrophotometer (M5, MD). IC50 values were obtained from at least 3 independent experiments.

MDA-MB-468 cells [8] = test: as above; assay type: cell-based, human; conditions: for antiproliferative activity of chemotherapeutic drugs in combination with APN inhibitor: with PTX, EPB, CTX, CBP, 48 h
Excerpt: as §4, §5

MDA-MB-231 cells [9] = test: Cellular reactive oxygen species detection (DCFH-DA, flow cytometry); assay type: cell-based, human; conditions: PTX alone, 48 h
MDA-MB-468 cells [10] = test: as above; assay type: cell-based, human; conditions: PTX alone, 48 h
MDA-MB-231 cells [11] = test: Apoptosis analysis (Annexin V-FITC/PI); assay type: cell-based, human; conditions: 48 h
Procedure: (§6) Moreover, APN inhibitor-induced chemo-sensitization had been frequently reported for PTX ([17], [29]). Therefore, the combination of PTX-APN inhibitor was selected in the subsequent studies.
(§7) The cells were seeded in 6-well plates (3 × 10^5 cells/well) and treated with various compounds for 48 h. Then, cells were collected and washed twice with cold PBS. Annexin V-FITC staining solution was then added to the cells, and cells were incubated at 2-8°C for 15 minutes under dark conditions. Then, PI staining solution was added by gentle mix at 2-8°C. After 5 minutes of incubation under dark conditions, cells were tested with flow cytometry immediately.

MDA-MB-468 cells [12] = test: Apoptosis analysis (Annexin V-FITC/PI); assay type: cell-based, human; conditions: 48 h
Procedure: as §6, §7

MDA-MB-231 cells [13] = test: Colony-formation assay; assay type: cell-based, human; conditions: 0.2 nM PTX + 1 µM APN inhibitor, 14 days
Procedure: as §2
(§8) 3000 cells were suspended in 2 mL medium, and seeded into the wells of six-well plate. After 12 hours of incubation, cells were treated with various compounds. Until each colony had more than 50 cells, this experiment terminated. Cells were washed twice with PBS and fixed with methanol for 10minutes. Then cells were stained with 1% crystal violet for 5minutes. Finally, colonies were washed and pictures were taken under a microscope (IX81, Olympus).

MDA-MB-468 cells [14] = test: Colony-formation assay; assay type: cell-based, human; conditions: 0.2 nM PTX + 1 µM APN inhibitor, 14 days
Procedure: as §2, §8

Sequence of Aminopeptidase N (APN, CD13) (P15144 whole entry): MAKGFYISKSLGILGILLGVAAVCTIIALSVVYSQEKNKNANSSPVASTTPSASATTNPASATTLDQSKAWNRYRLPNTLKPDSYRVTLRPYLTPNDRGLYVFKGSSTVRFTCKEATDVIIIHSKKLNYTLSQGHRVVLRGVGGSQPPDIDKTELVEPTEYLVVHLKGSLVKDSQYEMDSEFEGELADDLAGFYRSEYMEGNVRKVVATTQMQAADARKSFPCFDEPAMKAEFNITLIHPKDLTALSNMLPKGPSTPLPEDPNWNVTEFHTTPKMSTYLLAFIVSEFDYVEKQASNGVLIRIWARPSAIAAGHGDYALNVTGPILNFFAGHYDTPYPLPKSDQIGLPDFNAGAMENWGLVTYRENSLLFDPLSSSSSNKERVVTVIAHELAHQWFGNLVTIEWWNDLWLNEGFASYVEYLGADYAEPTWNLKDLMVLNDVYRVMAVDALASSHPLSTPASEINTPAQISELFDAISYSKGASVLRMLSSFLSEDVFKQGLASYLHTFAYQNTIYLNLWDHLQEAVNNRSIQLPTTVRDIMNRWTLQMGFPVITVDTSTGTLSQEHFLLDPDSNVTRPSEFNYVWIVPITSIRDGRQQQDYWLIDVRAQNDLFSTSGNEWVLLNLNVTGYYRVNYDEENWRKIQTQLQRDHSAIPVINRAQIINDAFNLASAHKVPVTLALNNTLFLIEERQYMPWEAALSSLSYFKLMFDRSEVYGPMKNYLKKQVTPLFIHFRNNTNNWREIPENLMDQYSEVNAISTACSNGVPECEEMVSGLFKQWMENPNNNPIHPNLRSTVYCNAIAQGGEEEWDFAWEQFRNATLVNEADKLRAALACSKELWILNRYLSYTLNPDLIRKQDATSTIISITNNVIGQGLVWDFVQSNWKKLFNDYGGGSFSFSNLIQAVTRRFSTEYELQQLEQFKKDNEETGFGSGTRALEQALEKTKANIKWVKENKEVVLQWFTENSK

inhibition at 30 µM [6] [%] | IC50 [6] [µM] | SMILES | APN expression, combination with PTX compared with paclitaxel alone [1] | APN expression, combination with PTX compared with paclitaxel alone [2] | number of tumor spheres formed, compared with control and PTX alone (MDA-MB-231 cells [3]) | number of tumor spheres formed, compared with control and PTX alone (MDA-MB-468 cells [4]) | anticancer effect of PTX (tumor weight) compared with single PTX administration group [5] | inhibitory rate (tumor), in combination with PTX [5] [%] | inhibitory potency among the tested chemotherapeutic drugs (MDA-MB-231 cells [7]; chemotherapeutic drug) | inhibitory potency among the tested chemotherapeutic drugs (MDA-MB-468 cells [8]; chemotherapeutic drug) | APN expression relative to untreated control ([1]; PTX alone) | APN expression relative to untreated control ([2]; PTX alone) | ROS levels compared to control group (MDA-MB-231 cells [9]) | ROS levels compared to control group (MDA-MB-468 cells [10]) | antiproliferative activity of chemotherapeutic drugs in combination with APN inhibitor (MDA-MB-231 cells [7]) | antiproliferative activity of chemotherapeutic drugs in combination with APN inhibitor (MDA-MB-468 cells [8]) | apoptotic rate in combination with PTX, compared with Bestatin (MDA-MB-231 cells [11]) | apoptotic rate in combination with PTX, compared with Bestatin (MDA-MB-468 cells [12]) | colony formation, compared with control and single PTX (MDA-MB-231 cells [13]) | colony formation, compared with control and single PTX (MDA-MB-468 cells [14])
74.5 ± 4.66 | 7.9 ± 0.27 | Cc1ccccc1C(=O)N1CCc2c(n(CC(=O)NO)c3ccccc23)C1 [Compound D16, N-hydroxy-2-(2-(2-methylbenzoyl)-1,2,3,4-tetrahydro-9H-pyrido[3,4-b]indol-9-yl)acetamide] | decreased APN expression | decreased APN expression | significant decrease in the number of tumor spheres | significant decrease in the number of tumor spheres | improved the anticancer effect of PTX | 14.15 |  |  |  |  |  |  | synergistically improved the antiproliferative activity of chemotherapeutic drugs | synergistically improved the antiproliferative activity of chemotherapeutic drugs | higher apoptotic rate | higher apoptotic rate | decreased the tumor sphere and colony formation abilities | decreased the tumor sphere and colony formation abilities
74.3 ± 6.16 | 7.74 ± 0.33 | O=C(Cn1c2c(c3ccccc31)CCN(C(=O)c1ccccc1F)C2)NO [Compound D14, 2-(2-(2-fluorobenzoyl)-1,2,3,4-tetrahydro-9H-pyrido[3,4-b]indol-9-yl)-N-hydroxyacetamide] | decreased APN expression | decreased APN expression | significant decrease in the number of tumor spheres | significant decrease in the number of tumor spheres | improved the anticancer effect of PTX | 31.32 |  |  |  |  |  |  | synergistically improved the antiproliferative activity of chemotherapeutic drugs | synergistically improved the antiproliferative activity of chemotherapeutic drugs | higher apoptotic rate | higher apoptotic rate | decreased the tumor sphere and colony formation abilities | decreased the tumor sphere and colony formation abilities
74.9 ± 4.35 | 8.92 ± 0.38 | O=C(Cn1c2c(c3ccccc31)CCN(C(=O)c1cccc(F)c1)C2)NO [Compound D12, 2-(2-(3-fluorobenzoyl)-1,2,3,4-tetrahydro-9H-pyrido[3,4-b]indol-9-yl)-N-hydroxyacetamide] | decreased APN expression | decreased APN expression | significant decrease in the number of tumor spheres | significant decrease in the number of tumor spheres | improved the anticancer effect of PTX | 54.02 |  |  |  |  |  |  | synergistically improved the antiproliferative activity of chemotherapeutic drugs | synergistically improved the antiproliferative activity of chemotherapeutic drugs | higher apoptotic rate | higher apoptotic rate | decreased the tumor sphere and colony formation abilities | decreased the tumor sphere and colony formation abilities

Further lines, the molecule ahead of its results:

SMILES | inhibition at 30 µM [6] [%] | IC50 [6] [µM] | APN expression, combination with PTX compared with paclitaxel alone [1] | APN expression, combination with PTX compared with paclitaxel alone [2] | number of tumor spheres formed, compared with control and PTX alone (MDA-MB-231 cells [3]) | number of tumor spheres formed, compared with control and PTX alone (MDA-MB-468 cells [4]) | anticancer effect of PTX (tumor weight) compared with single PTX administration group [5] | inhibitory rate (tumor), in combination with PTX [5] [%] | inhibitory potency among the tested chemotherapeutic drugs (MDA-MB-231 cells [7]; chemotherapeutic drug) | inhibitory potency among the tested chemotherapeutic drugs (MDA-MB-468 cells [8]; chemotherapeutic drug) | APN expression relative to untreated control ([1]; PTX alone) | APN expression relative to untreated control ([2]; PTX alone) | ROS levels compared to control group (MDA-MB-231 cells [9]) | ROS levels compared to control group (MDA-MB-468 cells [10]) | antiproliferative activity of chemotherapeutic drugs in combination with APN inhibitor (MDA-MB-231 cells [7]) | antiproliferative activity of chemotherapeutic drugs in combination with APN inhibitor (MDA-MB-468 cells [8]) | apoptotic rate in combination with PTX, compared with Bestatin (MDA-MB-231 cells [11]) | apoptotic rate in combination with PTX, compared with Bestatin (MDA-MB-468 cells [12]) | colony formation, compared with control and single PTX (MDA-MB-231 cells [13]) | colony formation, compared with control and single PTX (MDA-MB-468 cells [14])
CC(C)C[C@H](NC(=O)[C@@H](O)[C@H](N)Cc1ccccc1)C(=O)O [Bestatin, reference compound] | 53.9 ± 0.77 |  | decreased APN expression | decreased APN expression | significant decrease in the number of tumor spheres | significant decrease in the number of tumor spheres | improved the anticancer effect of PTX | 10.63 |  |  |  |  |  |  |  |  |  |  |  | 
CC(=O)O[C@H]1C(=O)[C@@]2(C)[C@H]([C@H](OC(=O)c3ccccc3)[C@]3(O)C[C@H](OC(=O)[C@H](O)[C@@H](NC(=O)c4ccccc4)c4ccccc4)C(C)=C1C3(C)C)[C@]1(OC(C)=O)CO[C@@H]1C[C@@H]2O [PTX, Paclitaxel, reference compound] |  |  |  |  |  |  |  |  | highest inhibitory potency | highest inhibitory potency | up-regulated APN expression | up-regulated APN expression | increased ROS levels | increased ROS levels |  |  |  |  |  | 
